Experiment [1] deals with T1, Sentrin-specific protease 5 (Homo sapiens, UniProt Q96HI0).
T1 sequence (Q96HI0 whole entry): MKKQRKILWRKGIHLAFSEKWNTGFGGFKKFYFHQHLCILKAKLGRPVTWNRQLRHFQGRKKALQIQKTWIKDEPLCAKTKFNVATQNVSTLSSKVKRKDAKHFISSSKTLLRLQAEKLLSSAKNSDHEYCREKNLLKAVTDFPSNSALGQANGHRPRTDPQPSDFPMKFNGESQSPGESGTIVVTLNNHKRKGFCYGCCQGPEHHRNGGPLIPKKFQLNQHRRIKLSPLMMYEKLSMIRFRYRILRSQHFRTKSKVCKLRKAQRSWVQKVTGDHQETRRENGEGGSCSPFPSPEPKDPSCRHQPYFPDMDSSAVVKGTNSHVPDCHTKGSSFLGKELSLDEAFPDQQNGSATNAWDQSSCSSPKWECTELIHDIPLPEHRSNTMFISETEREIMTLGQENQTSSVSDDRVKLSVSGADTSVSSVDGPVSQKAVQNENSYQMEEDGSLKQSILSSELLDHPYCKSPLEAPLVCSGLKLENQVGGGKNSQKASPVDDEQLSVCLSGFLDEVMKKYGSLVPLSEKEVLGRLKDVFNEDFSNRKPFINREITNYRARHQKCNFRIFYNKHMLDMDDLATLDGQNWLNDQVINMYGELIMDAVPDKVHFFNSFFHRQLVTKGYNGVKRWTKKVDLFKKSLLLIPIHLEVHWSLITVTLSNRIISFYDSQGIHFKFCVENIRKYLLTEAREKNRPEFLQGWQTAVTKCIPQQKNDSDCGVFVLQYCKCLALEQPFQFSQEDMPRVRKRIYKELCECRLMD
Kind of experiment: Inhibition of recombinant human SNEP5 (567 to 755 residues) expressed in Escherichia coli (DE3) cells using RanGAP-SUMO2 substrate preincubated for 10 mins followed by substrate addition and measured after 25 min by Coomassie blue staining based SDS-PAGE analysis.

For experiment [2], the target named is T2, Sentrin-specific protease 1 (Homo sapiens, UniProt Q9P0U3).
T2 sequence (Q9P0U3 whole entry): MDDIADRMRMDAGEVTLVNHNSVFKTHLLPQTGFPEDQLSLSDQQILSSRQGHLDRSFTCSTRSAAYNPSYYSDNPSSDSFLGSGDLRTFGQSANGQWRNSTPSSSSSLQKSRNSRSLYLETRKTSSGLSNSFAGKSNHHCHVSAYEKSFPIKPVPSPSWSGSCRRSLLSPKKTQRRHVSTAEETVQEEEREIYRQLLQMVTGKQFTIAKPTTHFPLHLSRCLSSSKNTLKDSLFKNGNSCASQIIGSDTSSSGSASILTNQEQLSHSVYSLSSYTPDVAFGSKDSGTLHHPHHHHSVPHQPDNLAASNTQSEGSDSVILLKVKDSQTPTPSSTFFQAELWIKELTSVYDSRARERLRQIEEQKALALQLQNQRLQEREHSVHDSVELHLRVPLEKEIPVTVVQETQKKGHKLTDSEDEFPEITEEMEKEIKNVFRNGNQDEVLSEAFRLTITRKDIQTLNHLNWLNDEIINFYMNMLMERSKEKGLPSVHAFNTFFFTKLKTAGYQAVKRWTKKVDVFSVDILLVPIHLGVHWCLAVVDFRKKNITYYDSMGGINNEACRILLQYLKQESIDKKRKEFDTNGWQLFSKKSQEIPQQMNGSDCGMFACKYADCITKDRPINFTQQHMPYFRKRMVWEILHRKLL
Kind of experiment: Inhibition of recombinant human SNEP1 (419 to 644 residues) expressed in Escherichia coli (DE3) cells using RanGAP-SUMO2 substrate preincubated for 10 mins followed by substrate addition and measured after 25 min by Coomassie blue staining based SDS-PAGE analysis.

Experiment [3] concerns the target T3, Sentrin-specific protease 2 (Homo sapiens, UniProt Q9HC62).
T3 sequence (Q9HC62 whole entry): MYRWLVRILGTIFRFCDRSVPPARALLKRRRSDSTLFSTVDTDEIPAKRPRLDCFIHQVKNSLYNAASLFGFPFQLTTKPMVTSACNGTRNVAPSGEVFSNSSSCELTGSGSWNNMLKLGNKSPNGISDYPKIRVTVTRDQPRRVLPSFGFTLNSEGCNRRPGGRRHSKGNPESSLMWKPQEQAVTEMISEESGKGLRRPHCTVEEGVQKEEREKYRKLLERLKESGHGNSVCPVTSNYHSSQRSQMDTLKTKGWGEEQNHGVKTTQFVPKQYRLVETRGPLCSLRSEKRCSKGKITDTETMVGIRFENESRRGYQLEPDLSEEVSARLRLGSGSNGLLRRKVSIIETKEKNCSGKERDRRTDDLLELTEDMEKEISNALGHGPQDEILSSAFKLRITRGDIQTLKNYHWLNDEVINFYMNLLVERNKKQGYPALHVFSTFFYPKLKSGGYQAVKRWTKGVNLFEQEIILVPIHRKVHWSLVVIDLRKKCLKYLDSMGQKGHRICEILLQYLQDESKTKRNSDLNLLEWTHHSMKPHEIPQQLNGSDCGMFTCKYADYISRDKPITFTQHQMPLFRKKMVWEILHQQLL
Kind of experiment: Inhibition of recombinant human SNEP2 (365 to 589 residues) expressed in Escherichia coli (DE3) cells using RanGAP-SUMO2 substrate preincubated for 10 mins followed by substrate addition and measured after 25 min by Coomassie blue staining based SDS-PAGE analysis.

The nature of experiment [4]: Inhibition of recombinant human SNEP1 F496A mutant (419 to 644 residues) expressed in Escherichia coli (DE3) cells using RanGAP-SUMO2 substrate preincubated for 10 mins followed by substrate addition and measured after 25 min by Coomassie blue staining based SDS-PAGE analysis.
A short description of experiment [5]: Inhibition of recombinant human SNEP1 H529A mutant (419 to 644 residues) expressed in Escherichia coli (DE3) cells using RanGAP-SUMO2 substrate preincubated for 10 mins followed by substrate addition and measured after 25 min by Coomassie blue staining based SDS-PAGE analysis.
A short description of experiment [6]: Inhibition of recombinant human SNEP1 Q597A mutant (419 to 644 residues) expressed in Escherichia coli (DE3) cells using RanGAP-SUMO2 substrate preincubated for 10 mins followed by substrate addition and measured after 25 min by Coomassie blue staining based SDS-PAGE analysis.
The nature of experiment [7]: Inhibition of recombinant human SNEP1 W465A mutant (419 to 644 residues) expressed in Escherichia coli (DE3) cells using RanGAP-SUMO2 substrate preincubated for 10 mins followed by substrate addition and measured after 25 min by Coomassie blue staining based SDS-PAGE analysis.
Experiment [8] in a line: Inhibition of recombinant human SNEP1 K455A mutant (419 to 644 residues) expressed in Escherichia coli (DE3) cells using RanGAP-SUMO2 substrate preincubated for 10 mins followed by substrate addition and measured after 25 min by Coomassie blue staining based SDS-PAGE analysis.

pIC50: −log10 of the molar value.

`CC(=O)Nc1cccc(CNC(=O)c2sc3ccccc3c2OCc2ccccc2)c1`: the pIC50 was 4.54 in experiment [1], 4.60 in experiment [2] and 4.28 in experiment [3].
As to `CCOC(=O)CNc1ccc2sc(C(=O)NCc3cccc(NC(=O)c4cccs4)c3)c(OCc3ccccc3)c2c1`, the pIC50 in experiment [4] is 5.23; in experiment [5], 4.67; in experiment [6] it was 4.65; in experiment [7], 4.39; in experiment [8] it was 5.47.
For the molecule `Nc1ccc(C(=O)Nc2cccc(CNC(=O)c3sc4ccccc4c3OCc3ccccc3)c2)cc1`, the pIC50 in experiment [1] was less than 4.00.

(Values after ChEMBL document CHEMBL4765398, “Benzothiophene-2-carboxamide derivatives as SENPs inhibitors with selectivity within SENPs family” (Eur J Med Chem, 2020).)
